Results reported in US20070037887A1, “Blockade of mtor to prevent a hormonal adaptive response” (University of Virginia Patent Foundation, priority 2003, published 2007).

What was measured:
MCF-7 cells = experiment: Growth of MCF-7 cells (cell number); assay type: cell-based, human
Method: FIG. 3 represents the effect of FTS on the growth of MCF-7, LTED, and MCF-10A cells. Sixty thousand cells were plated into each well of 6-well plates. Two days later, the cells were treated in triplicate for five days with FTS at indicated concentrations. The results (mean±S.E.) are expressed as percentage of the vehicle control.
FIG. 4 represents the effect of FTS on E2 stimulated growth of MCF-7 and LTED cells. Thirty thousand cells were plated into each well of 6-well plates. Two days later, the cells were re-fed with IMEM containing 5% DCC-FBS. After another two days, cells were treated in triplicate with estradiol (10^−10 M) plus various concentrations of FTS for five days. In LTED cells, fulvestrant (10^−9 M) was included in all wells to block the effect of residual estrogen in the culture. The results (mean±S.E.) are expressed as percentage of cell number from the wells containing E2.
The effect of FTS on growth of breast cancer cells was examined in two different cell lines: MCF-7 wild type cells which represent a model for untreated breast cancer and LTED cells as a model of cells adapting to endocrine treatment. Cells were grown in their culture media and treated with FTS for five days. […] The effect of FTS on E2-stimulated growth of MCF-7 and LTED cells was the examined. Five-day treatment of MCF-7 cells with E2 (10^−10 M) increased cell number by 8-fold compared with the vehicle control. Addition of FTS reduced cell number in a dose-dependent manner with about 50% inhibition at the concentration of 50 μM […]. […] The extent of inhibition of E2-stimulated cell growth by FTS was similar in these two cell lines.

[1] = test system: ERK1/2, Akt, p70S6K, PHAS-1 phosphorylation in LTED cells; experiment: EGF induced activation of MAP kinase, PI3 kinase and mTOR in LTED cells (Western); assay type: cell-based, human
Text: FIG. 8 represents data showing the effect of FTS on EGF induced activation of MAP kinase, PI3 kinase, and mTOR in LTED cells. […] Cells were then harvested and cell lysate prepared. Phosphorylated and total kinases were detected by Western analysis using specific antibodies.
The effects of the specific growth factors, EFG and IGF-1 were also examined. Serum contains multiple growth factors that activate MAP kinase and PI3 kinase either by recruitment and activation of the common mediator Ras (such as EGF) or through a direct mechanism (such as IGF-1). To further explore the site of action of FTS, EGF-induced activation of MAPK and PI3 kinase was first examined. Specific inhibitors for PI3 kinase and mammalian target of rapamycin (mTOR) were included for comparison. […] One-hour treatment was chosen as the time point allowing most efficient comparisons among molecules.

mTOR-raptor complex = biological target: T1, mTOR-raptor complex (Homo sapiens, UniProt P42345+Q8N122); experiment: Coimmunoprecipitation of raptor with mTOR from 293T cells incubated with compound; assay type: cell-based; settings: nontransfected 293T cells
T1 construct: expressed in transfected cells; host or cells: 293T
Method: (§1) FIG. 11A & 11B represent data showing FTS inhibits PHAS-I phosphorylation and promotes dissociation of the mTOR-raptor complex in 293T cells. 293T cells were transfected with pcDNA3AU1-mTOR, pcDNA33HARaptor, pcDNA33HA-mLST8, and pCMV-Tag3APHAS-I (FIG. 11A). After 18 h the cells were incubated for 1 h with increasing concentrations of FTS before extracts were prepared. A sample of each extract was subjected to SDS-PAGE and immunoblotted to detect PHAS-I or PThr^36/45. AU1-mTOR was also immunoprecipitated from each extract, and immune complexes were subjected to SDSPAGE and immunoblotted with mTAb2, to detect mTOR, and with anti-HA antibodies, to detect HA-mLST8 and HA-raptor. Nontransfected 293T cells were incubated with increasing concentrations of FTS for 1 h before extracts were prepared. mTOR was immunoprecipitated with mTAb1, and samples were subjected to SDS-PAGE.
(§2) FIGS. 12A & 12B represent data showing the effects of incubating cells with increasing concentrations of FTS and GTS on mTOR activity and mTOR association with raptor and mLST8. AU1-mTOR, HA-raptor, and HAmLST8 were overexpressed in 293T cells. The cells were then incubated for 1 h with increasing concentrations of FTS (●, ▴, ▪) or GTS (∘, Δ, □) before extracts were prepared. Immunoprecipitations were then conducted with anti-AU1 antibodies. mTOR kinase activity (●, ∘) was determined by measuring ^32P incorporation into [His^6]PHAS-I in immune complex kinases assays performed with [γ-^32P]ATP. The relative amounts of HA-raptor (▴, Δ) and HA-mLST8 (▪, □) that coimmunoprecipitated with AU1-mTOR were determined after immunoblotting with anti-HA antibodies. The results (mean values±S.E. from 3 experiments) are expressed as percentages of the mTOR activity (FIG. 12A) or coimmunoprecipitating proteins (FIG. 12B) from samples incubated without FTS or GTS, and have been corrected for the amounts of AU1-mTOR immunoprecipitated.
To investigate further the inhibitory effects of FTS on mTOR signaling, the effect of the drug on the association of mTOR, raptor, and mLST8 was determined. AU1-mTOR and HA-tagged forms of raptor and mLST8 were overexpressed in 293T cells, which were then incubated with increasing concentrations of FTS before AU1-mTOR was immunoprecipitated with anti-AU1 antibodies. Immunoblots were prepared with anti-HA antibodies to assess the relative amounts of HA-raptor and HA-mLST8 that coimmunoprecipitated with AU 1-mTOR (FIG. 11A).
Results obtained with overexpressed proteins are not necessarily representative of responses of endogenous proteins. Therefore, experiments were conducted to investigate the effect FTS on the endogenous TORC1 in nontransfected cells. […]

mTOR-mLST8 = biological target: T2, mTOR-mLST8 (Homo sapiens, UniProt P42345+Q9BVC4); experiment: Coimmunoprecipitation of mLST8 with mTOR from 293T cells incubated with compound; assay type: cell-based; settings: nontransfected 293T cells; much less pronounced than effect on raptor
T2 construct: expressed in transfected cells; host or cells: 293T
Method: as §1, §2
To investigate further the inhibitory effects of FTS on mTOR signaling, the effect of the drug on the association of mTOR, raptor, and mLST8 was determined. […]

[2] = pretreatment FTS 1 h, LY 294002 or rapamycin 3 h, EGF 1 μg/ml 1 h

For `CC(C)=CCC/C(C)=C/CC/C(C)=C/CSc1ccccc1C(=O)O` [FTS, farnesylthiosalicylic acid], the inhibition at 50 µM (MCF-7 cells; Homo sapiens, MCF7, 120 h, read-out: inhibition of E2-stimulated growth (cell number)) was about 50%, the basal growth (MCF-7 cells; culture media, five days) was “dose-dependently inhibited” and the “growth factor induced Thr229 phosphorylation of p70 S6K” value ([1]; EGF or IGF-1) was “very limited, if any, inhibition”. For the same compound, the “EGF-induced phosphorylation of p70S6K at Thr389” value ([1]; FTS even at 50 μM, EGF 1 μg/ml 1 h) was “completely abolished”, the “EGF-induced ERK1/2 MAP kinase phosphorylation” value [1, 2] was “did not inhibit” and the “EGF-induced phosphorylation of Akt at Ser473” value [1, 2] was “neither FTS nor rapamycin blocked”. The “PHAS-1 Ser65 phosphorylation” value ([1]; serum starved 24 h, EGF) was “dose-dependently inhibited”, the “amount of endogenous raptor that coimmunoprecipitated with mTOR” value (mTOR-raptor complex) was “markedly decreased” and the “amount of endogenous mLST8 that coimmunoprecipitated with mTOR” value (mTOR-mLST8) was “also decreased”.
